Some test systems named below: SF-539; CCRF-CEM; IGROV-1; MDA-N; UACC-62; CAKI-1; ACHN; EKVX; HCC 2998; MCF7; A498; BT-549; NCI-H23; SR; M14; SK-MEL-5; OVCAR-5; MDA-MB-231; MDA-MB-435; HOP-92.
Holding throughout (experiment): DTP human tumour cell line panel, 48 h

We go through 7 compounds from ChEMBL document CHEMBL1201862, “PubChem BioAssay data set” (2004).

As usually defined, the GI50 is the concentration that inhibits growth by half.

The structures appear in SMILES notation.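 Growth conditions: 96-well plates. Treatment: test compound, 48 hours, 5 concentrations. Analysis: linear interpolation between bracketing concentrations; unreached endpoints set to highest concentration. The concentration for 50% growth inhibition is given as GI50.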 The source made the active and inactive calls. No stated cut-off is given here; in the data, active = GI50 up to about 1.1 µM and inactive = higher.

Turning to `COC(=O)c1ccc2cc(O)ccc2c1`, the GI50 in the assay with SF-539 is 89.3 µM (inactive); in the assay on CCRF-CEM, > 100 µM (inactive); in the assay with IGROV-1, 75.7 µM (inactive); with MDA-N, 78.9 µM (inactive); with UACC-62 it was > 100 µM (inactive); with CAKI-1, > 100 µM (inactive). Moreover, the GI50 with ACHN is 76.6 µM (inactive); in the assay with EKVX, 55.8 µM (inactive); with HCC 2998 it was > 100 µM (inactive); with MCF7, 55 µM (inactive); in the assay on A498, 38.5 µM (inactive); in the assay on BT-549, 79.6 µM (inactive). Besides, the GI50 with NCI-H23 is 72.3 µM (inactive); in the assay on SR it was 22 µM (inactive); in the assay on M14, 72.1 µM (inactive); in the assay on SK-MEL-5, 56.4 µM (inactive); in the assay with OVCAR-5, > 100 µM (inactive); in the assay on MDA-MB-231, > 100 µM (inactive). Also, the GI50 is 96.6 µM (inactive) in the assay with MDA-MB-435 and > 100 µM (inactive) in the assay on HOP-92.
Consider `COc1cc(C2c3cc4c(cc3OC(N3CCOCC3)C2C)OCO4)cc(OC)c1OC(C)=O` (centres undefined), for which the GI50 was 13.3 µM (inactive) in the assay with SF-539; 11.7 µM (inactive) with CCRF-CEM; 14.2 µM (inactive) with IGROV-1; 1.99 µM (inactive) with MDA-N; 5.53 µM (inactive) with UACC-62; 16.6 µM (inactive) with CAKI-1. In addition, the GI50 is 26.6 µM (inactive) in the assay with ACHN; 47.5 µM (inactive) with EKVX; 11.9 µM (inactive) in the assay on HCC 2998; 8.59 µM (inactive) with MCF7; 27.8 µM (inactive) in the assay on A498; 7.89 µM (inactive) with BT-549. Also, the GI50 in the assay with NCI-H23 was 31.3 µM (inactive); in the assay with SR, 6.25 µM (inactive); in the assay on M14, 9.06 µM (inactive); in the assay on SK-MEL-5, 4.46 µM (inactive); in the assay on OVCAR-5, 49.1 µM (inactive); in the assay on MDA-MB-231, 18 µM (inactive). Moreover, the GI50 was 2.46 µM (inactive) in the assay on MDA-MB-435 and 23.9 µM (inactive) in the assay with HOP-92.
Consider `O=C1C=CC(=O)c2c1ccc1c3ccccc3n(-c3cccc([N+](=O)[O-])c3)c21`, for which the GI50 in the assay with SF-539 is > 5.05 µM (inactive); in the assay on CCRF-CEM, 0.357 µM (active); with IGROV-1, 5.81 µM (inactive); in the assay with MDA-N it was 2.2 µM (inactive); in the assay with UACC-62, 2.13 µM (inactive); with CAKI-1, 2.55 µM (inactive). Further, the GI50 was 1.7 µM (inactive) with ACHN; > 5.45 µM (inactive) with EKVX; > 10 µM (inactive) in the assay on HCC 2998; 2.29 µM (inactive) with MCF7; 5.85 µM (inactive) in the assay on A498; 1.69 µM (inactive) in the assay with BT-549. The GI50 with NCI-H23 is 2.65 µM (inactive); in the assay on SR, 0.412 µM (active); in the assay with M14, 1.73 µM (inactive); in the assay on SK-MEL-5 it was 5.57 µM (inactive); in the assay with OVCAR-5, > 10 µM (inactive); in the assay on MDA-MB-231, 2.72 µM (inactive). The GI50 is 2.05 µM (inactive) with MDA-MB-435 and 2.09 µM (inactive) in the assay on HOP-92.
For `OCCCNCC(O)c1ccc(OCc2ccccc2)c(OCc2ccccc2)c1` (centres undefined), the GI50 in the assay with SF-539 was 10.9 µM (inactive); in the assay with CCRF-CEM, 8.15 µM (inactive); with IGROV-1, 10.2 µM (inactive); with MDA-N, 9.64 µM (inactive); in the assay with UACC-62, 20 µM (inactive); with CAKI-1, 17.6 µM (inactive). In addition, the GI50 is 10.4 µM (inactive) in the assay on ACHN; 15 µM (inactive) in the assay with EKVX; 5.3 µM (inactive) in the assay on HCC 2998; 8.04 µM (inactive) with MCF7; 11.9 µM (inactive) in the assay on A498; 15.8 µM (inactive) in the assay with BT-549. Also, the GI50 is 17.5 µM (inactive) in the assay with NCI-H23; 10.9 µM (inactive) in the assay with SR; 17.1 µM (inactive) in the assay with M14; 7.03 µM (inactive) in the assay with SK-MEL-5; 15.7 µM (inactive) with OVCAR-5; 14 µM (inactive) in the assay with MDA-MB-231. Also, the GI50 in the assay with MDA-MB-435 is 7.8 µM (inactive); in the assay on HOP-92, 7.59 µM (inactive).
Regarding `CC1(C)C2CC3C(C)(C2)C31c1cc(Cl)ccc1N` (centres undefined), the GI50 is 15.5 µM (inactive) in the assay with SF-539; 16 µM (inactive) with CCRF-CEM; 14.5 µM (inactive) in the assay on IGROV-1; 12.2 µM (inactive) with MDA-N; 15.2 µM (inactive) with UACC-62; 15.6 µM (inactive) with CAKI-1. For the same compound, the GI50 in the assay on ACHN was 15.6 µM (inactive); in the assay on EKVX, 13.7 µM (inactive); in the assay on HCC 2998, 15 µM (inactive); in the assay on MCF7 it was 13.4 µM (inactive); in the assay with A498, 17.7 µM (inactive); in the assay on BT-549, 15.5 µM (inactive). The GI50 in the assay with NCI-H23 is 12.3 µM (inactive); with SR, 6.79 µM (inactive); with M14 it was 12.4 µM (inactive); with SK-MEL-5 it was 14.2 µM (inactive); with OVCAR-5, 16 µM (inactive); with MDA-MB-231, 16.2 µM (inactive). In addition, the GI50 was 12.6 µM (inactive) with MDA-MB-435 and 13.3 µM (inactive) in the assay on HOP-92.
Consider `Cc1cc(-c2nc3cc(F)ccc3s2)ccc1N`, for which the GI50 in the assay on SF-539 is 20.4 µM (inactive); in the assay on CCRF-CEM, 1.95 µM (inactive); in the assay with IGROV-1, < 0.01 µM (active); in the assay on MDA-N, > 46.1 µM (inactive); with UACC-62, 39.7 µM (inactive); in the assay on CAKI-1, 23.6 µM (inactive). Moreover, the GI50 with ACHN is 22.4 µM (inactive); with EKVX it was 11.2 µM (inactive); with HCC 2998, < 0.01 µM (active); in the assay on MCF7, < 0.01 µM (active); in the assay on A498, 2 µM (inactive); in the assay with BT-549, > 48 µM (inactive). The GI50 is 2.79 µM (inactive) in the assay on NCI-H23; < 0.0106 µM (active) in the assay with SR; 39.2 µM (inactive) in the assay with M14; 42.4 µM (inactive) in the assay with SK-MEL-5; 0.794 µM (active) in the assay with OVCAR-5; 8.11 µM (inactive) in the assay on MDA-MB-231. Besides, the GI50 in the assay with MDA-MB-435 was > 55.6 µM (inactive); in the assay on HOP-92, 18.7 µM (inactive).
As to `COc1cc2c(c(OC)c1OC)-c1ccc(SC)c(=O)cc1[C@@H](OC(=O)c1ccncc1)CC2`, the GI50 in the assay with SF-539, with CCRF-CEM, in the assay with IGROV-1, with MDA-N, in the assay with UACC-62 and in the assay on CAKI-1 was < 0.01 µM (active) each time. Further, the GI50 is < 0.01 µM (active) with ACHN; < 0.01 µM (active) in the assay on HCC 2998; < 0.01 µM (active) in the assay with MCF7; < 0.0116 µM (active) in the assay with A498; < 0.01 µM (active) with BT-549; < 0.01 µM (active) in the assay with NCI-H23. The GI50 in the assay on SR is < 0.0145 µM (active); with M14, < 0.01 µM (active); in the assay on SK-MEL-5, < 0.01 µM (active); with OVCAR-5, < 0.01 µM (active); in the assay on MDA-MB-231, < 0.01 µM (active); in the assay on MDA-MB-435, < 0.01 µM (active). Besides, the GI50 in the assay on HOP-92 was 30.1 µM (inactive).
